A flash point compilation (Sun et al. 2020)
Structures can show the parent of a compound that is named as a salt.

Experiments:
[1] = not given; remark: listed apart in the source
[2] = not given; remark: listed apart in the source
[3] = not given; remark: listed apart in the source

flash point [°C]	Structure (SMILES)	flash point [2] [°C]	also measured
7	CCC(Cl)Cl [1,1-dichloropropane]	–	flash point [1]: 21.00 °C
–	ClCC(Cl)CCl [1,2,3-Trichloropropane]	82.00	–
–	Clc1ccc(Cl)c(Cl)c1 [1,2,4-Trichlorobenzene]	99.00	–
–	CC(O)CCO (configuration not stated) [1,3-Butylene glycol]	121.00	–
–	ClCCCCl [1,3-Dichloropropane]	35.00	–
–	NCCCN [1,3-Propanediamine]	24.00	–
–	ClCCCCCl [1,4-Dichlorobutane]	52.00	–
–	OCCCCCO [1,5-Pentanediol]	135.00	–
26	CCCCCCCl [1-chlorohexane]	–	flash point [1]: 35.00 °C
38	COCC(C)O (configuration not stated) [1-methoxy-2-propanol]	–	flash point [3]: 31 °C
110	C=CCCCCCCCCCCCC [1-tetradecene]	–	flash point [3]: 97 °C
–	CC(O)C(C)O (configuration not stated) [2,3-Butylene glycol]	85.00	–
–	CC(C)=CC(C)(C)C [2,4,4-Trimethyl-2-pentene]	2.00	–
–	CC(=O)CC(C)=O [2,4-Pentanedione]	41.00	–
–	Nc1cc(Cl)ccc1Cl [2,5-Dichloroaniline]	166.00	–
–	CCC(C=O)CC [2-Ethyl butyraldehyde]	21.00	–
–	CCCC=C(C=O)CC [2-Ethyl-3-propyl acrolein]	68.00	–
–	Oc1ccc2ccccc2c1 [2-Naphthol]	153.00	–
–	CC(C)[N+](=O)[O-] [2-Nitropropane]	39.00	–
-32	CCCC(C)C [2-methylpentane]	–	flash point [1]: -29.00 °C
32	COCCCN [3-methoxypropylamine]	–	flash point [3]: 23 °C
–	CC=O [Acetaldehyde]	-38.00	–
–	CC(=O)O [Acetic acid]	43.00	–
–	CC(=O)OC(C)=O [Acetic anhydride]	54.00	–
–	CC(C)=O [Acetone]	-18.00	–

flash point [°C]	Structure (SMILES)	flash point [2] [°C]	also measured
–	O=C(O)CCCCC(=O)O [Adipic acid]	191.00	–
–	N#CCCCCC#N [Adiponitrile]	93.00	–
–	C=CCBr [Allyl bromide]	-1.00	–
–	COc1ccccc1 [Anisole]	52.00	–
–	c1ccc2cc3ccccc3cc2c1 [Anthracene]	121.00	–
–	O=C1c2ccccc2C(=O)c2ccccc21 [Anthraquinone]	185.00	–
–	O=Cc1ccccc1 [Benzaldehyde]	64.00	–
–	c1ccccc1 [Benzene]	-11.00	–
–	O=C(O)c1ccccc1 [Benzoic acid]	121.00	–
–	FC(F)(F)c1ccccc1 [Benzotrifluoride]	12.00	–
–	CC(=O)OCc1ccccc1 [Benzyl acetate]	102.00	–
–	OCc1ccccc1 [Benzyl alcohol]	101.00	–
–	O=C(OCc1ccccc1)c1ccccc1 [Benzyl benzoate]	148.00	–
–	ClCc1ccccc1 [Benzyl chloride]	67.00	–
–	SCc1ccccc1 [Benzyl mercaptan]	70.00	–
–	C1CCC(C2CCCCC2)CC1 [Bicyclohexyl]	74.00	–
–	C=COCCCC [Butyl vinyl ether]	-9.00	–
–	CC12CCC(CC1=O)C2(C)C (configuration not stated) [Camphor]	66.00	–
–	Clc1ccccc1 [Chlorobenzene]	29.00	–
–	FC(F)=C(F)Cl [Chlorotrifluoroethylene]	-27.00	–
–	O=CC=Cc1ccccc1 [Cinnamaldehyde]	49.00	–
–	NC1CCCCC1 [Cyclohexylamine]	32.00	–
–	c1ccc(C2CCCCC2)cc1 [Cyclohexylbenzene]	99.00	–
–	C1CCCC1 [Cyclopentane]	-7.00	–
–	CCCCCCCCOC(=O)c1ccccc1C(=O)OCCCCCCCC [Di-n-Octyl phthalate]	219.00	–

flash point [°C]	Structure (SMILES)	flash point [2] [°C]	also measured
–	CCCCCCC(C)OC(=O)c1ccccc1C(=O)OC(C)CCCCCC (configuration not stated) [Di-sec-Octyl phthalate]	218.00	–
–	OCCOCCO [Diethylene glycol]	124.00	–
–	CC(C)c1ccccc1C(C)C [Diisopropyl benzene]	76.00	–
–	CS(C)=O [Dimethyl sulphoxide]	95.00	–
–	CN(C)C=O [Dimethylformamide]	58.00	–
–	c1ccc(Nc2ccccc2)cc1 [Diphenylamine]	153.00	–
–	c1ccc(Cc2ccccc2)cc1 [Diphenylmethane]	130.00	–
–	CCO [Ethanol]	12.00	–
–	CCOC(C)=O [Ethyl acetate]	-4.40	–
–	C=CC(=O)OCC [Ethyl acrylate]	16.00	–
–	CCCC(=O)OCC [Ethyl butyrate]	26.00	–
–	O=CO [Formic acid]	69.00	–
–	OCc1ccco1 [Furfuryl alcohol]	75.00	–
–	Clc1c(Cl)c(Cl)c(Cl)c(Cl)c1Cl [Hexachlorobenzene]	242.00	–
–	CCCCCC [Hexane]	-22.00	–
–	COc1ccc(O)cc1 [Hydroquinone monomethyl ether]	131.00	–
–	CC(O)C#N (configuration not stated) [Lactonitrile]	77.00	–
–	O=C1C=CC(=O)O1 [Maleic anhydride]	102.00	–
–	CC(=O)C=C(C)C [Mesityl oxide]	31.00	–
–	COC(C)=O [Methyl acetate]	-9.00	–
–	CO [Methyl alcohol]	12.00	–
–	CCCCC(C)=O [Methyl butyl ketone]	35.00	–
–	COC [Methyl ether]	-41.00	–
–	COC=O [Methyl formate]	-19.00	–
–	COC(=O)c1ccccc1O [Methyl salicylate]	101.00	–

flash point [°C]	Structure (SMILES)	flash point [2] [°C]	also measured
13	CC#N [acetonitrile]	–	flash point [1]: 6.00 °C
-0	C1=CCCC1 [cyclopentene]	–	flash point [3]: -30 °C
41	CCCCCCC=O [heptanal]	–	flash point [1]: 35.00 °C
25	CCCCCC=O [hexanal]	–	flash point [1]: 32.00 °C
83	COC(=O)c1ccccc1 [methyl benzoate]	–	–
-30	CCC(C)OC (configuration not stated) [methyl sec-butyl ether]	–	–
-11	CCC(C)(C)OC [methyl tert-pentyl ether]	–	–
-6	C=C1CCCCC1 [methylenecyclohexane]	–	flash point [3]: -2 °C
51	CCCCCCCCCC [n-decane]	–	–
-28	CCCOCCC [n-propyl ether]	–	–
60	CCCCCCCCN [octylamine]	–	–
65	CCCCCc1ccccc1 [pentylbenzene]	–	–
-40	CCC=O [propionaldehyde]	–	–
37	CCCOC(=O)CCC [propyl butyrate]	–	–
-0	CCCOC=O [propyl formate]	–	flash point [1]: -3.00 °C
31	c1cncnc1 [pyrimidine]	–	–
26	CCC(C)O (configuration not stated) [sec-butanol]	–	–
60	CC(=O)CC(=O)OC(C)(C)C [t-butyl acetoacetate]	–	–
60	CC(C)(C)c1ccccc1 [t-butylbenzene]	–	–
42	CC(C)(C)C1CCCCC1 [t-butylcyclohexane]	–	–
30	CCOC(OCC)OCC [triethoxymethane]	–	–
15	COC(OC)OC [trimethoxymethane]	–	–

Structure (SMILES)	flash point [°C]	flash point [2] [°C]	also measured
ClCCCCl [1,3-dichloropropane]	32	–	flash point [3]: 21 °C
ClCCCCCl [1,4-dichlorobutane]	40	–	flash point [3]: 43 °C
ClCCCCCCl [1,5-dichloropentane]	26	–	flash point [3]: 63 °C
CCCCCl [1-chlorobutane]	-12	–	flash point [1]: -7.00 °C
CCCCCCCCCl [1-chlorooctane]	63	–	flash point [1]: 70.00 °C
CN(C)C1CCCCC1 [N,N-dimethylcyclohexylamine]	39	–	flash point [3]: 41 °C
CC(=O)C=C(C)C [mesityl oxide]	25	–	–
Cc1cc(C)cc(C)c1 [mesitylene]	50	–	–
C=C(C)C#N [methacrylonitrile]	1	–	–
CN=C=S [methyl isothiocyanate]	32	–	–
COC(=O)c1ccccc1O [methyl salicylate]	96	–	–
CN [methylamine]	-62	–	–
CN(CCO)CCO [methyldiethanolamine]	138	–	–
CCCCOC(C)=O [n-butyl acetate]	22	–	–
CCCCON=O [n-butyl nitrite]	-13	–	–
CCCC(=O)O [n-butyric acid]	69	–	–
CCCC#N [n-butyronitrile]	16	–	–
CCCCCCCC#N [octanenitrile]	73	–	–
CCCCCCCC(=O)Cl [octanoyl chloride]	82	–	flash point [1]: 81.00 °C
Clc1ccc(Cl)cc1 [p-dichlorobenzene]	66	–	–
O=C1OC(=O)c2ccccc21 [phthalic anhydride]	152	–	–
C1CCNCC1.Cl [piperidine hydrochloride]	65	–	–
CCC(C)OC(C)=O (configuration not stated) [sec-butyl acetate]	16	–	–
CCC(C)(C)O.CCC(C)(C)O [tert-amyl alcohol (2-methyl-2-butanol)]	20	–	–
CCCCN(CCCC)CCCC [tributylamine]	72	–	–
CCCCC#N [valeronitrile]	40	–	–
